Measured values from patent US5519024A, “Quinolonecarboxylic acid derivatives and their use” (Takeda Chemical Industries, Ltd., priority 1993, dated 1996).
Where a name gives a salt, the structure may show the parent alone.

Target: T1, GPIIb/IIIa (Homo sapiens, UniProt P05106+P08514)
T1 construct: Purification of GPIIb/IIIa from HEL cells; endogenous in cells; host or cells: HEL cells (HEL 92.1.7, ATCC TIB180); endogenous complex solubilized with Triton X-100 and purified in house
Assay: Inhibitory activity against binding of GPIIb/IIIa and fibrinogen
Conditions: for inhibition at 10 µM / inhibition at 1 µM: Table 2, read-out: GPIIb/IIIa Fibrinogen Binding Inhibitory Activity; for inhibition at 10 µM: 10^-5 M; for inhibition at 1 µM: 10^-6 M; for GPIIb/IIIa Fibrinogen Binding Inhibitory Activity: Table 1
Procedure: Test Example 1: Inhibitory activity against binding of GPIIb/IIIa and fibrinogen
(1) Cultivation of human erythroleukemia-derived cell line (hereinafter referred to as HEL cells)
HEL cells (HEl92.1.7; ATCC No. TIB180) were purchased from ATCC (Rockville, Md., U.S.A.). The medium was RPMI medium (GIBCO Laboratories, Grand Island, N..Y, U.S.A.) containing 40 mM N-2-hydroxyethylpiperazine-N'-2-ethanesulfonic acid (hereinafter referred to as HEPES) (pH 7.0), 0.2% NaHCO3, 100 μg/ml kanamycin and 10% FCS. The cells were cultured in the presence of 5% CO2 at 37° C., with the medium replaced with a fresh medium to obtain a 4- to 5-fold dilution at intervals of 3 to 4 days.
(2) Purification of GPIIb/IIIa from HEL cells
GPIIb/IIIa was purified by a modification of the method of L. A. Fitzgerald et al. [J. Biol. Chem., 262, 3936 (1987)] as follows: All purification was conducted at room temperature, unless otherwise stated. At 7 days of cultivation, cells were collected from the HEL cell culture broth (cell suspension) by centrifugation (1,000 ×g, 10 minutes, 4° C.). After washing with 20 mM Tris-HCl (pH 7.5) containing 1 mM EDTA and 150 mM NaCl, the cells were suspended in a solubilizing buffer (20 mM Tris-HCl, 150 mM NaCl, 1% Triton X-100, 1 mM MgCl2, 1 mM CaCl2, 0.1 mM (p-amidinophenyl)methanesulfonyl fluoride (hereinafter referred to as APMSF), 10 nM leupeptin, 0.02% NaN3, pH 7.4), followed by gentle stirring at 4° C. for 30 minutes, to solubilize the GPIIb/IIIa. The suspension was centrifuged (100,000 ×g, 1 hour) at 4° C., and the cell debris removed, to yield a cell extract. The cell extract was passed through a Heparin-Sepharose CL-6B column (Pharmacia LKB) and a DEAE-Toyopearl 650M column (Tosoh), both previously equilibrated with a column buffer (20 mM Tris-HCl, 150 mM NaCl, 0.1% Triton X-100, 1 mM MgCl2, 1 mM CaCl2, 0.1 mM APMSF, 1 nM leupeptin, 0.05% NaN3, pH 7.4). The effluent was applied to a ConA-Sepharose column (Pharmacia LKB), previously equilibrated with the same column buffer as above, to adsorb the GPIIb/IIIa, followed by elution with the same column buffer but containing 0.5M methyl α-D-mannopyranoside. The eluted fraction was concentrated at 4° C. using an ultrafiltration apparatus (Amicon Corporation the fraction's molecular weight of 10,000), after which it was subjected to gel filtration through a Sephacryl S-300 column (Pharmacia LKB), previously equilibrated with the same column buffer, to yield a purified standard sample.
(3) Biotinization of human fibrinogen
Conducted by the method of I. F. Charo [I. F. Charo et al., J. Biol. Chem., 266, 1415 (1991)].
Human fibrinogen (Kabi Vitrum AB) was dissolved in PBS to 5 mg/ml and then dialyzed at 4° C. against 0.1M carbonate buffer (pH 8.2) containing 0.1M NaCl. After dialysis, insoluble substances were removed by centrifugation (100,000 ×g, 30 minutes), and the dialyzate was diluted to 1 mg/ml with the same buffer. To this dilution, sulfo-N-hydroxysuccinimidebiotin (Pierce Chemical Co.) was added to a final concentration of 0.2 mg/ml, followed by gentle mixing at room temperature for 30 minutes, to biotinize the fibrinogen. After completion of the reaction, the mixture was dialyzed against 0.05M Tris-HCl buffer (pH 7.4) containing 0.1M NaCl and 0.05% NaN3.
(4) Determination of inhibitory activity against fibrinogen binding
Conducted by a modification of the method of I. F. Charo [I. F. Charo et al., J. Biol. Chem., 266, 1415 (1991)] as follows: The purified GPIIb/IIIa was diluted to 1 μg/ml with buffer A (20 mM Tris-HCl, 150 mM NaCl, 1 mM CaCl2, 0.02% NaN3, pH 7.4). A 100 μl aliquot of this dilution was dispensed to a 96-well microplate (Maxisorp, produced by Nunc), and the plate kept standing at 4° C., to adsorb the GPIIb/IIIa to the microplate. Next, 150 μl of buffer B (35 mg/ml BSA, 50 mM Tris-HCl, 100 mM NaCl, 2 mM CaCl2, 0.02% NaN3, pH 7.4) was added, followed by 2 hours of blocking at 30° C. […]

T1 sequence (P08514 32-887 limits assumed): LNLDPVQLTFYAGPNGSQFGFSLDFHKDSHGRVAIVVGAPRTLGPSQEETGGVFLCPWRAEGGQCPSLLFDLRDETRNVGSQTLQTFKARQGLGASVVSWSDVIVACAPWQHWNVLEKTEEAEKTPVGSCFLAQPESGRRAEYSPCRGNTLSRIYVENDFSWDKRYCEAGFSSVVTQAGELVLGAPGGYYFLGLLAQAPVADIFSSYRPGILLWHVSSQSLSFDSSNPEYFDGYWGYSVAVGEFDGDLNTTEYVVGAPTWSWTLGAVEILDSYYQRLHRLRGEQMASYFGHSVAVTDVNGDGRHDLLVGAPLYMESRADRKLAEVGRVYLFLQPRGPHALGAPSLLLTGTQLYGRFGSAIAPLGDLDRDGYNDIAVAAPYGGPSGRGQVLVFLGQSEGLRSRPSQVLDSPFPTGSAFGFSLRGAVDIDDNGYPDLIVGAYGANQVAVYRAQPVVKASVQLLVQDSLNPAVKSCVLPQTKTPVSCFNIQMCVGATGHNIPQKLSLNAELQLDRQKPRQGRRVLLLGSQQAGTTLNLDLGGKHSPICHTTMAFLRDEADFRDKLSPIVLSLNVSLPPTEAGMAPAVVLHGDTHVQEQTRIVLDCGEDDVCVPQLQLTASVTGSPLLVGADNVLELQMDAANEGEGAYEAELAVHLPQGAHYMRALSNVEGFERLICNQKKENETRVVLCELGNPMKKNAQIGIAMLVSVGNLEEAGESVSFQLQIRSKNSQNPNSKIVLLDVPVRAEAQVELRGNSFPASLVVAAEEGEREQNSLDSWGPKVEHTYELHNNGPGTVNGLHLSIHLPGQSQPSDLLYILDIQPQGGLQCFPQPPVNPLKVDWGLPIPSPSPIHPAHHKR
T1 sequence (P08514 891-1039 limits assumed): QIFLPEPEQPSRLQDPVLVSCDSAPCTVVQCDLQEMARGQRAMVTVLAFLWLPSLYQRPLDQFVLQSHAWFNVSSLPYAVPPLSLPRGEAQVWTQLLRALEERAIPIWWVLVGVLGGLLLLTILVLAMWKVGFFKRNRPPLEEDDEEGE
T1 sequence (P05106 27-788): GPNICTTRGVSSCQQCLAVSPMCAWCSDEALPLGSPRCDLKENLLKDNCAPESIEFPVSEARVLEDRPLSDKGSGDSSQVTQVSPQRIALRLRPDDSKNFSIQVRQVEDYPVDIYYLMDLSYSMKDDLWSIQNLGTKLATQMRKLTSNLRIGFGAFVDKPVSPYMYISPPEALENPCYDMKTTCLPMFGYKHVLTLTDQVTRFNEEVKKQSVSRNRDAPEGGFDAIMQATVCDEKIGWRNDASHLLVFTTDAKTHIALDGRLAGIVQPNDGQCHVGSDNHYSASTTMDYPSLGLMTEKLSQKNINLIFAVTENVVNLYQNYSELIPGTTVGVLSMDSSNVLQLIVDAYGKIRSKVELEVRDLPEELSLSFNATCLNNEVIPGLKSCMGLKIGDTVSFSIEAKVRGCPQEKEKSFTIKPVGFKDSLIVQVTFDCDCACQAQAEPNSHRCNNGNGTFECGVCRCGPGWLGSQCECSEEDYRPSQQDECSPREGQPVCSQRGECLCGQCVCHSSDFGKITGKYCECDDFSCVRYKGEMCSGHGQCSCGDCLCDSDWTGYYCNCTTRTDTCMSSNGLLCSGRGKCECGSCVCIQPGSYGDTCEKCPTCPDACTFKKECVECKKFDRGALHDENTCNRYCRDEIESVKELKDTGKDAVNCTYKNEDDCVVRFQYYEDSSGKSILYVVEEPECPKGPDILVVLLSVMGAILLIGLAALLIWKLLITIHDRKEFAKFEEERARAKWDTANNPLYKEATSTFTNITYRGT

Molecule `O=C(O)c1cn(Cc2ccncc2)c2c(F)c(N3CCNCC3)c(F)cc2c1=O` [Compound 75, 6,8-Difluoro-7-(1-piperazinyl)-1-(4-pyridylmethyl)-1,4-dihydro-4-oxoquinoline-3-carboxylic acid] has an inhibition at 10 µM of 100% and an inhibition at 1 µM of 100%.
For `O=C(O)c1cn(Cc2nccs2)c2c(F)c(N3CCN(c4cc(N5CCCC5)nc(N5CCCC5)n4)CC3)c(F)cc2c1=O` [Compound 67], the inhibition at 10 µM was 58.6% and the inhibition at 1 µM was 76.4%.
`Cn1cc(C(=O)O)c(=O)c2cc(F)c(N3Cc4ccccc4C(N)C3)c(F)c21` (stereo not drawn) [Compound 2] gave an inhibition at 10 µM of 72.4% and an inhibition at 1 µM of 48.4%.
For `Nc1c(F)c(N2CCN3CCC[C@@H]3C2)c(F)c2c1c(=O)c(C(=O)O)cn2C1CC1` [Compound 44], the inhibition at 10 µM was 61.6% and the inhibition at 1 µM was 33.4%.
With `O=C(O)c1cn(CCO)c2c(F)c(N3CCn4ccnc4C3)c(F)cc2c1=O` [Compound 10, 1-(2-Hydroxyethyl)-6,8-difluoro-7-(5,6,7,8-tetrahydroimidazo[1,2-a]pyrazin-7-yl)-1,4-dihydro-4-oxoquinoline-3-carboxylic acid] the inhibition at 10 µM was 91.3% and the inhibition at 1 µM was 72.9%.
In the case of `CN(C)CCCNc1c(F)cc2c(=O)c(C(=O)O)cn(Cc3nccs3)c2c1F` [Compound 60], the inhibition at 10 µM is reported as 100% and the inhibition at 1 µM is reported as 95%.
In the case of `COc1ccc(Cn2cc(C(=O)O)c(=O)c3ccc(N4CCNCC4)cc32)cc1` [Compound 81, 1-(4-Methoxybenzyl)-7-(4-piperazin-1-yl)-1,4-dihydro-4-oxoquinoline-3-carboxylic acid], the inhibition at 10 µM is reported as 100% and the inhibition at 1 µM is reported as 100%.
For `CCn1cc(C(=O)O)c(=O)c2cc(F)c(SC3CCN(C)CC3)cc21` [Compound 5], the inhibition at 10 µM was 60.3% and the inhibition at 1 µM was 26%.
In the case of `COc1ccccc1Cn1cc(C(=O)O)c(=O)c2cc(F)c(N3CCNCC3)c(F)c21` [Compound 76, 6,8-Difluoro-1-(2-methoxybenzyl)-7-(1-piperazinyl)-1,4-dihydro-4-oxoquinoline-3-carboxylic acid], the inhibition at 10 µM is reported as 100% and the inhibition at 1 µM is reported as 83.1%.
`O=C(O)c1cn(Cc2cscn2)c2c(F)c(N3CCNCC3)c(F)cc2c1=O` [Compound 72, 6,8-Difluoro-7-(1-piperazinyl)-1-(4-thiazolylmethyl)-1,4-dihydro-4-oxoquinoline-3-carboxylic acid hydrochloride] gave an inhibition at 10 µM of 100% and an inhibition at 1 µM of 88.6%.
Work on `CN1CCN(c2c(F)cc3c(=O)c(C(=O)O)cn(Cc4nccs4)c3c2F)CC1` [Compound 50, 6,8-Difluoro-7-(4-methylpiperazin-1-yl)-1-(thiazol-2-yl)methyl-1,4-dihydro-4-oxoquinoline-3-carboxylic acid hydrochloride] yielded an inhibition at 10 µM of 99.8% and an inhibition at 1 µM of 92.3%.
With `NC(=O)OCCn1cc(C(=O)O)c(=O)c2cc(F)c(N3CCNCC3)c(F)c21` [Compound 11, 1-(2-Carbamoyloxyethyl)-6,8-difluoro-7-(1-piperazinyl)1,4-dihydro-4-oxoquinoline-3-carboxylic acid] the inhibition at 10 µM was 96.8% and the inhibition at 1 µM was 84.3%.
With `NC1CCCN(c2c(F)cc3c(=O)c(C(=O)O)cn(C4CC4)c3c2F)C1` (stereo not drawn) [Compound 38] the inhibition at 10 µM was 50.8% and the inhibition at 1 µM was 31.9%.
Molecule `CN(C)CCn1cc(C(=O)O)c(=O)c2cc(F)c(N3CCNCC3)cc21` [Compound 12] has an inhibition at 10 µM of 79.1% and an inhibition at 1 µM of 65.1%.
Work on `CN1CCN(c2c(F)cc3c(=O)c(C(=O)O)cn(C4CC4)c3c2F)CC1` [Compound 17] yielded an inhibition at 10 µM of 47.3% and an inhibition at 1 µM of 17.1%.
In the case of `O=C(O)c1cn(Cc2ccc(C(F)(F)F)cc2)c2c(F)c(N3CCC(C4CCNCC4)CC3)c(F)cc2c1=O` [Compound 79, 6,8-Difluoro-7-[4-(4-piperidinyl)piperidin-1-yl]-1-(4-trifiuoromethylbenzyl)-1,4-dihydro-4-oxoquinoline-3-carboxylic acid], the inhibition at 10 µM is reported as 100% and the inhibition at 1 µM is reported as 100%.
With `NC(=O)CCCNc1c(F)cc2c(=O)c(C(=O)O)cn(C3CC3)c2c1F` [Compound 41] the inhibition at 10 µM was 58.8% and the inhibition at 1 µM was 17.9%.
In the case of Romechloxaxin [reference compound], the “GPIIb/IIIa Fibrinogen Binding Inhibitory Activity” value (1 × 10^-5 M) is reported as 59.6% and the “GPIIb/IIIa Fibrinogen Binding Inhibitory Activity” value (1 × 10^-6 M) is reported as 22.8%.
With `CCNCC1CCN(c2c(F)cc3c(=O)c(C(=O)O)cn(C4CC4)c3c2F)C1` (stereo not drawn) [Compound 23] the inhibition at 10 µM was 72.3% and the inhibition at 1 µM was 36.2%.
For `CN(C)Cc1cn2c(n1)CN(c1c(F)cc3c(=O)c(C(=O)O)cn(C4CC4)c3c1F)CC2` [Compound 28, 1-Cyclopropyl-6,8-difluoro-7-(2-dimethylaminomethyl-5,6,7,8-tetrahydroimidazo[1,2-a]pyrazin-7-yl)-1,4-dihydro-4-oxoquinoline-3-carboxylic acid], the inhibition at 10 µM was 95.8% and the inhibition at 1 µM was 73.3%.
`O=C(O)c1cn(Cc2ccc(Cl)cc2)c2c(F)c(N3CCNCC3)c(F)cc2c1=O` [Compound 74, 1-(4-Chlorobenzyl)-6,8-difluoro-7-(1-piperazinyl)-1,4-dihydro-4-oxoquinoline-3-carboxylic acid] showed an inhibition at 10 µM of 58.5% and an inhibition at 1 µM of 26.1%.
Work on `O=C(O)c1cn(CCF)c2c(F)c(N3CCN4CCCC4C3)c(F)cc2c1=O` (stereo not drawn) [Compound 8] yielded an inhibition at 10 µM of 79.3% and an inhibition at 1 µM of 53.1%.
`O=C(O)c1cn(C2CC2)c2c(F)c(N3CCn4ccnc4C3)c(F)cc2c1=O` [Compound 18] showed an inhibition at 10 µM of 42.6% and an inhibition at 1 µM of 30.5%.
`O=C(O)c1cn(C2CCc3ccccc32)c2c(F)c(N3CCNCC3)c(F)cc2c1=O` (stereo not drawn) [Compound 46, 6,8-Difluoro-1-(indan-1-yl)-7-(piperazin-1-yl) 1,4-dihydro-4-oxoquinoline-3-carboxylic acid] was tested, and the inhibition at 1 µM was 41.6%.
Molecule `CCn1cc(C(=O)O)c(=O)c2cc(F)c(N3CCN(c4ccncc4)CC3)cc21` [Compound 3, 1-Ethyl-6-fluoro-7-[4-(4-pyridyl)piperazin-1-yl]-1,4-dihydro-4-oxoquinoline-3-carboxylic acid] has an inhibition at 10 µM of 82.2% and an inhibition at 1 µM of 57.1%.
`CN1CCN(c2c(F)cc3c(=O)c(C(=O)O)cn(C)c3c2F)CC1` [Compound 1] gave an inhibition at 10 µM of 70.7% and an inhibition at 1 µM of 48.6%.
`C=CCN(CC=C)c1c(F)cc2c(=O)c(C(=O)O)cn(C3CC3)c2c1F` [Compound 43] gave an inhibition at 10 µM of 52.1% and an inhibition at 1 µM of 20.2%.
`O=C(O)c1cn(Cc2cscn2)c2c(F)c(N3CCN(c4ccncc4)CC3)c(F)cc2c1=O` [Compound 73, 6,8-Difluoro-7-[4-(4-pyridyl)piperazine-1-yl]-1-(4-thiazolylmethyl)-1,4-dihydro-4-oxoquinoline-3-carboxylic acid] showed an inhibition at 10 µM of 100% and an inhibition at 1 µM of 100%.
Work on `O=C(O)c1cn(C2CC2)c2c(F)c(N3CCN4CCC[C@@H]4C3)c(F)cc2c1=O` [Compound 31] yielded an inhibition at 10 µM of 73% and an inhibition at 1 µM of 39.3%.
